# pEC50, pIC50: −log10 of the molar value. Read-outs that look alike come from different tables or passages of the source.
# Legend:
# [1] = biological target: T1, HCV NS3/4A protease complex, BMS strain (UniProt P27958, species not given/STRAIN_BMS); experiment: FRET peptide assay to monitor HCV NS3/4A proteolytic activity (BMS strain); format: biochemical, Hepatitis C virus (genotype 1a)
# T1 construct: DNA encoding the recombinant HCV NS3/4A protease complex (amino acids 1027 to 1711) for these strains [H77 and J4L6S]; fused on or other part: For the H77 and J4L6S constructs, a three-lysine solubilising tail at the NS4A C-terminus and a Ni-NTA-purifiable tag from pET21b
# Excerpt: Generation of Recombinant HCV NS3/4A Protease Complex
# HCV NS3 protease complexes, derived from the BMS strain, H77 strain or J4L6S strain, were generated, as described below. These purified recombinant proteins were generated for use in a homogeneous assay (see below) to provide an indication of how effective compounds of the present disclosure would be in inhibiting HCV NS3 proteolytic activity.
# Serum from an HCV-infected patient was obtained from Dr. T. Wright, San Francisco Hospital. An engineered full-length cDNA (compliment deoxyribonucleic acid) template of the HCV genome (BMS strain) was constructed from DNA fragments obtained by reverse transcription-PCR (RT-PCR) of serum RNA (ribonucleic acid) and using primers selected on the basis of homology between other genotype 1a strains. From the determination of the entire genome sequence, a genotype 1a was assigned to the HCV isolate according to the classification of Simmonds et al. (See P Simmonds, K A Rose, S Graham, S W Chan, F McOmish, B C Dow, E A Follett, P L Yap and H Marsden, J. Clin. Microbiol., 31(6), 1493-1503 (1993)). […] The infectious clones, H77 (1a genotype) and J4L6S (1b genotype) were obtained from R. Purcell (NIH) and the sequences are published in Genbank (AAB67036, see Yanagi, M., Purcell, R. H., Emerson, S. U. and Bukh, J. Proc. Natl. Acad. Sci. U.S.A. 94(16), 8738-8743 (1997); AF054247, see Yanagi, M., St Claire, M., Shapiro, M., Emerson, S. U., Purcell, R. H. and Bukh, J, Virology 244 (1), 161-172. (1998)).
# The H77 and J4L6S strains were used for production of recombinant NS3/4A protease complexes. DNA encoding the recombinant HCV NS3/4A protease complex (amino acids 1027 to 1711) for these strains were manipulated as described by P. Gallinari et al. (see Gallinari P, Paolini C, Brennan D, Nardi C, Steinkuhler C, De Francesco R. Biochemistry. 38(17):5620-32, (1999)). Briefly, a three-lysine solubilizing tail was added at the 3′-end of the NS4A coding region. The cysteine in the P1 position of the NS4A-NS4B cleavage site (amino acid 1711) was changed to a glycine to avoid the proteolytic cleavage of the lysine tag. Furthermore, a cysteine to serine mutation was introduced by PCR at amino acid position 1454 to prevent the autolytic cleavage in the NS3 helicase domain. The variant DNA fragment was cloned in the pET21b bacterial expression vector (Novagen) and the NS3/4A complex was expressed in Escherichia coli strain BL21 (DE3) (Invitrogen) following the protocol described by P. Gallinari et al. (see Gallinari P, Brennan D, Nardi C, Brunetti M, Tomei L, Steinkuhler C, De Francesco R., J. Virol. 72(8):6758-69 (1998)) with modifications. Briefly, the NS3/4A protease complex expression was induced with 0.5 millimolar (mM) Isopropyl β-D-1-thiogalactopyranoside (IPTG) for 22 hours (h) at 20° C. A typical fermentation (1 Liter (L)) yielded approximately 10 grams (g) of wet cell paste. The cells were resuspended in lysis buffer (10 mL/g) consisting of 25 mM N-(2-Hydroxyethyl)piperazine-N′-(2-Ethane Sulfonic acid) (HEPES), pH 7.5, 20% glycerol, 500 mM Sodium Chloride (NaCl), 0.5% Triton X-100, 1 microgram/milliliter (“μg/mL”) lysozyme, 5 mM Magnesium Chloride (MgCl2), 1 μg/mL DnaseI, 5 mM β-Mercaptoethanol (βME), Protease inhibitor—Ethylenediamine Tetraacetic acid (EDTA) free (Roche), homogenized and incubated for 20 minutes (min) at 4° C. The homogenate was sonicated and clarified by ultra-centrifugation at 235000 g for 1 h at 4° C. Imidazole was added to the supernatant to a final concentration of 15 mM and the pH adjusted to 8.0. The crude protein extract was loaded on a Nickel—Nitrilotriacetic acid (Ni-NTA) column pre-equilibrated with buffer B (25 mM HEPES, pH 8.0, 20% glycerol, 500 mM NaCl, 0.5% Triton X-100, 15 mM imidazole, 5 mM βME). The sample was loaded at a flow rate of 1 mL/min. The column was washed with 15 column volumes of buffer C (same as buffer B except with 0.2% Triton X-100). […]
# [2] = test system: HCV replicon in HUH-7 cells; experiment: HCV replicon FRET assay; format: cell-based, Hepatitis C virus (strain 1b); conditions: HCV replicon cell assay, HUH-7, read-out: EC50 Range
# Excerpt: Generation of HCV Replicon
# An HCV replicon whole cell system was established as described by Lohmann V, Korner F, Koch J, Herian U, Theilmann L, Bartenschlager R., Science 285(5424):110-3 (1999). This system enabled us to evaluate the effects of our HCV Protease compounds on HCV RNA replication. Briefly, using the HCV strain 1b sequence described in the Lohmann paper (Assession number:AJ238799), an HCV cDNA was synthesized by Operon Technologies, Inc. (Alameda, Calif.), and the full-length replicon was then assembled in plasmid pGem9zf(+) (Promega, Madison, Wis.) using standard molecular biology techniques. The replicon consists of (i) the HCV 5′ UTR fused to the first 12 amino acids of the capsid protein, (ii) the neomycin phosphotransferase gene (neo), (iii) the IRES from encephalomyocarditis virus (EMCV), and (iv) HCV NS3 to NS5B genes and the HCV 3′ UTR. Plasmid DNAs were linearized with ScaI and RNA transcripts were synthesized in vitro using the T7 MegaScript transcription kit (Ambion, Austin, Tex.) according to manufacturer's directions. In vitro transcripts of the cDNA were transfected into the human hepatoma cell line, HUH-7. […] Resulting cell lines were characterized for positive and negative strand RNA production and protein production over time.
# The HCV replicon FRET assay was developed to monitor the inhibitory effects of compounds described in the disclosure on HCV viral replication. HUH-7 cells, constitutively expressing the HCV replicon, were grown in Dulbecco's Modified Eagle Media (DMEM) (Gibco-BRL) containing 10% Fetal calf serum (FCS) (Sigma) and 1 mg/mL G418 (Gibco-BRL). Cells were seeded the night before (1.5×10^4 cells/well) in 96-well tissue-culture sterile plates. Compound and no compound controls were prepared in DMEM containing 4% FCS, 1:100 Penicillin/Streptomysin (Gibco-BRL), 1:100 L-glutamine and 5% DMSO in the dilution plate (0.5% DMSO final concentration in the assay). Compound/DMSO mixes were added to the cells and incubated for 4 days at 37° C. After 4 days, cells were first assessed for cytotoxicity using alamar Blue (Trek Diagnotstic Systems) for a CC50 reading. The toxicity of compound (CC50) was determined by adding 1/10th volume of alamar Blue to the media incubating the cells. After 4 h, the fluorescence signal from each well was read, with an excitation wavelength at 530 nm and an emission wavelength of 580 nm, using the Cytofluor Series 4000 (Perspective Biosystems). Plates were then rinsed thoroughly with Phosphate-Buffered Saline (PBS) (3 times 150 μl).
# [3] = NS3/4A BMS strain, enzyme assay; read-out: IC 50 Range
# T1 sequence (P27958 1027-1657, stated change not applied, one chain of several): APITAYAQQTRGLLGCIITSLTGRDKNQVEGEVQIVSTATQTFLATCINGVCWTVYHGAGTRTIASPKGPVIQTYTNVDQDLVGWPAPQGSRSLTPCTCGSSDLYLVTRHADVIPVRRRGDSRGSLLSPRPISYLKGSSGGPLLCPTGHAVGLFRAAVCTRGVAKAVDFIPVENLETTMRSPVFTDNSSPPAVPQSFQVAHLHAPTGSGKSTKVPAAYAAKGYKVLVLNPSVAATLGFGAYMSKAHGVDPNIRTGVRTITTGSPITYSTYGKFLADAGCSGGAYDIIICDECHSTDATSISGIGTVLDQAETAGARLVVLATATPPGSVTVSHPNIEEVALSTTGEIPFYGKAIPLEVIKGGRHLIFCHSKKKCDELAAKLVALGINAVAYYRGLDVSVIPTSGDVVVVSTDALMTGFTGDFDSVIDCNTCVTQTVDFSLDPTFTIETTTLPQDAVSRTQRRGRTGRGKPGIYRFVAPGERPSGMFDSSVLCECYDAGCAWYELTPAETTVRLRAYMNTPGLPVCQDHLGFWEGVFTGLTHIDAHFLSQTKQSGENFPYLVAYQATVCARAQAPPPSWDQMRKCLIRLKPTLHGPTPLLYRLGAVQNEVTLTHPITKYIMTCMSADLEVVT
SMILES,"pIC50 [1, 3]",pEC50 ([2]; Hepatitis C virus),pEC50 [2],"pIC50 ([1]; read-out: IC 50 Range; NS3/4A BMS strain, enzyme assay)"
C=CC1CC1(NC(=O)[C@@H]1C[C@@H](NC(=O)c2cc(Cl)nc3ccccc23)CN1C(=O)[C@@H](NC(=O)CC1CC1)C(C)(C)C)C(=O)NS(=O)(=O)C1CC1 (some centres unmarked) [Compound 13],4.82 to 6.82,< 4.82,–,–
C=CC1CC1(NC(=O)[C@@H]1C[C@@H](NC(=O)c2ccncc2)CN1C(=O)[C@@H](NC(=O)CC1CC1)C(C)(C)C)C(=O)NS(=O)(=O)C1CC1 (some centres unmarked) [Compound 14],4.82 to 6.82,< 4.82,–,–
C=CC1CC1(NC(=O)[C@@H]1C[C@@H](NC(=O)c2cccc3ccccc23)CN1C(=O)[C@@H](NC(=O)CC1CC1)C(C)(C)C)C(=O)NS(=O)(=O)C1CC1 (some centres unmarked) [Compound 16],> 6.82,< 4.82,–,–
C=CC1CC1(NC(=O)[C@@H]1C[C@@H](NC(=O)c2c(C)nc3ccccn23)CN1C(=O)[C@@H](NC(=O)CC1CC1)C(C)(C)C)C(=O)NS(=O)(=O)C1CC1 (some centres unmarked) [Compound 17],> 6.82,< 4.82,–,–
C=CC1CC1(NC(=O)[C@@H]1C[C@@H](NC(=O)c2c(C)nc3ccccn23)CN1C(=O)[C@@H](NC(=O)CC1CC1)C(C)(C)C)C(=O)NS(=O)(=O)C1CC1 (some centres unmarked) [Compound 18],4.82 to 6.82,–,< 4.82,–
C=CC1CC1(NC(=O)[C@@H]1C[C@@H](NC(=O)c2cn(C)c3ccccc23)CN1C(=O)[C@@H](NC(=O)CC1CC1)C(C)(C)C)C(=O)NS(=O)(=O)C1CC1 (some centres unmarked) [Compound 19],–,< 4.82,–,> 6.82
C=CC1CC1(NC(=O)[C@@H]1C[C@@H](NC(=O)c2c(C)nc3sccn23)CN1C(=O)[C@@H](NC(=O)CC1CC1)C(C)(C)C)C(=O)NS(=O)(=O)C1CC1 (some centres unmarked) [Compound 20],> 6.82,< 4.82,–,–
C=CC1CC1(NC(=O)[C@@H]1C[C@@H](NC(=O)c2c(-c3ccc(Cl)cc3)cn3ccccc23)CN1C(=O)[C@@H](NC(=O)CC1CC1)C(C)(C)C)C(=O)NS(=O)(=O)C1CC1 (some centres unmarked) [Compound 21],> 6.82,4.82 to 6.82,–,–
C=CC1CC1(NC(=O)[C@@H]1C[C@@H](NC(=O)c2cnc3c(c(C)nn3C)c2Cl)CN1C(=O)[C@@H](NC(=O)CC1CC1)C(C)(C)C)C(=O)NS(=O)(=O)C1CC1 (some centres unmarked) [Compound 22],> 6.82,< 4.82,–,–
C=CC1CC1(NC(=O)[C@@H]1C[C@@H](NC(=O)c2nccc3ccccc23)CN1C(=O)[C@@H](NC(=O)CC1CC1)C(C)(C)C)C(=O)NS(=O)(=O)C1CC1 (some centres unmarked) [Compound 24],4.82 to 6.82,< 4.82,–,–
